The values that follow come from PMC8007834, “Anti-estrogenic and anti-aromatase activities of citrus peels major compounds in breast cancer” (Scientific Reports, 2021).

≈ marks a conversion by molar mass, not a printed value.

In data set [1] the test system is MCF-7. In words: SRB cytotoxicity assay on MCF7. As to conditions: for IC50: Homo sapiens, MCF7, ± SD, read-out: IC50 values, cytotoxic effect on MCF7. It is filed as cell-based, human. The method, then:
(§1) The assessment was performed in the National Cancer Institute in Egypt (NCI). The half maximal inhibitory concentration (IC50) values were then calculated from three independent experiments, three replicates each for each sample.
A general note: Sulforhodamine B stains cellular protein and so reports cell mass.

The subject of data set [2] is T47D. In words: SRB cytotoxicity assay on T47D. The following applies: ± SD; for IC50: Homo sapiens, T47D, read-out: IC50 values, cytotoxic effect on T47D. It is filed as cell-based, human. The method, then: as §1
The nature of data set [3]: SRB cytotoxicity assay on normal HFB4 cells. The data set is classed as cell-based, human. The following applies: human, normal HFB4 cells, ± SD, read-out: IC50 values, cytotoxic effect on HFB4. As to the method: (§2) The cytotoxic activity of the ethanolic extracts of the peels along with the isolated major phenolics was tested against two human estrogen-dependent breast cancer cell lines, namely, MCF-7 and T47D, as well as the normal human HFB4 cells for assessment of toxicity, using the sulforhodamine B (SRB) assay. The assessment was performed in the National Cancer Institute in Egypt (NCI). The half maximal inhibitory concentration (IC50) values were then calculated from three independent experiments, three replicates each for each sample.

Data set [4] deals with Ehrlich ascites carcinoma (EAC) solid tumor. In words: Ehrlich ascites carcinoma (EAC) solid tumor model, tumor volume. The following applies: 19th day after treatment; quercetin 100, naringenin 50, naringin 100 mg/kg i.p. daily. It is filed as in vivo, mice. The text has this:
In order to evaluate the anticancer effect of the active isolates (quercetin, naringenin and naringin) and their potential to decrease aromatase levels in tumours, an animal model of Ehrlich ascites carcinoma (EAC) solid tumour was used followed by aromatase ELISA assay as will be described later. Swiss albino female mice (20-25 g) were used for the experiment. EAC cells were collected from the ascitic fluid of a female Swiss albino mouse bearing a 10-day old ascitic tumor where approximately 2.5 × 10^6 cells were transplanted, i.m. in the left thigh of female mice. When tumors became palpable (approximately 200-300 mm^3 in volume), treatment was initiated. Forty EAC-tumour bearing mice were randomly allocated into the following groups (n = 10): (1) PC group: positive control group that received only drug vehicle, (2) Qrt.-treated group: Mice were treated with a daily dose of 100 mg/kg of quercetin[30] i.p., (3) Narn.-treated group: Mice were treated with a daily dose of 50 mg/kg of naringenin, i.p.[31], and (4) Nar.-treated group: […] Treatment doses were given daily excluding Fridays and Saturdays. Tween 80 (1%) was used as a vehicle. Mice were sacrificed under brief anaesthesia at the 20th day after starting treatment and tumors were collected for further analysis. Tumor volume was calculated using a digital caliper at days 0, 4, 7, 10, 13, 16, and 19 after treatment, according to the following equation[33]: […]

The subject of data set [5] is Immature female Swiss albino mice. In words: In vivo anti-estrogenic activity assay (with estradiol). As to conditions: for reversal of estradiol-induced vaginal cornification / reduction in uterine weight compared to estradiol alone: 30 mg/kg i.p. plus estradiol; for reduction in uterine weight compared to estradiol alone: 7 days; for day on which vaginal opening reached 100% / day on which vaginal opening started (delay up to day): flavonoid 30 mg/kg i.p. plus estradiol 12.5 µg/kg s.c., estradiol alone as positive control. The method, then:
(§3) Immature female Swiss albino mice (8-13 g) were obtained from the animal house of the Faculty of Pharmacy, The British University in Egypt. All experimental procedures were conducted in compliance with the Animal Research: Reporting of In Vivo Experiments (ARRIVE) guidelines and the National Institutes of Health guide for the care and use of Laboratory animals (NIH Publication No. 85-23, revised 2011) and were approved by the Ethics Committee, Faculty of Pharmacy, The British University in Egypt (Ex-2101). All experiments were performed during the light phase of a light/dark cycle that was started 1 week after acclimatization. The room temperature was adjusted at 25 ± 2 °C. Mice had free access to food and water during the experiments. The experimental design was adopted from[27],[28]. The mice were randomly divided into 9 groups (7-8 mice each) as follows: Group 1: Negative control (NC) receiving only olive oil, s.c.; Group 2: […] For estrogenic activity, Group 3: Genistein phytoestrogen positive control (Gein.) treated group; Group 4: Quercetin (Qrt.) treated group; Group 5: Naringenin (Narn.) treated group and Group 6: Naringin (Nar.) treated group. For anti-estrogenic activity, estradiol was given after treatments by 6 h for Groups 7, 8 and 9 representing […]., respectively. All treatments including genistein were given at a dose of 30 mg/kg dissolved in Tween 80 (1%), i.p., for 7 days. The animals' weights were recorded daily to ensure the safety of the doses used. On the 7th day, the animals were sacrificed, the morphological appearance of the livers was observed, and the uteri were also isolated and weighed. The in vivo estrogenic and anti-estrogenic activities were assessed. The vaginal opening on each day of the study was checked as a sign of puberty. On the 7th day, vaginal swab was taken from the opened vagina to examine the cornification level under light microscope (4× lens). The uteri were excised and weighed after sacrification of mice under anesthesia.

Data set [6] has as its system Aromatase. In words: Aromatase protein levels in EAC solid tumors (ELISA). The data set is classed as in vivo, mice. The source says: EAC cells were collected from the ascitic fluid of a female Swiss albino mouse bearing a 10-day old ascitic tumor where approximately 2.5 × 10^6 cells were transplanted, i.m. in the left thigh of female mice. When tumors became palpable (approximately 200–300 mm^3 in volume), treatment was initiated. Forty EAC-tumour bearing mice were randomly allocated into the following groups (n = 10): (1) PC group: positive control group that received only drug vehicle, (2) Qrt.-treated group: Mice were treated with a daily dose of 100 mg/kg of quercetin[30] i.p., (3) Narn.-treated group: Mice were treated with a daily dose of 50 mg/kg of naringenin, i.p.[31], and (4) Nar.-treated group: Mice were treated with a daily dose of 100 mg/kg of naringin, i.p.[32]. Treatment doses were given daily excluding Fridays and Saturdays. Tween 80 (1%) was used as a vehicle. Mice were sacrificed under brief anaesthesia at the 20th day after starting treatment and tumors were collected for further analysis.
Excised tumors were homogenized as 10% (w/v) in phosphate buffered saline. Aromatase concentration was then determined in tissue homogenates using Mouse Aromatase ELISA kit (MyBiosource, USA), according to the manufacturer’s instructions. Optical density equivalent to aromatase levels in samples was determined at 450 nm using a microplate reader.
(In general: ELISA stands for enzyme-linked immunosorbent assay.)

Data set [7] concerns Immature female Swiss albino mice. In words: In vivo estrogenic activity assay. The following applies: 30 mg/kg i.p. The method, then:
as §3

In data set [8] the test system is uterine weight. Further details: method as in PMID 25337190. As to conditions: cited from earlier work.
Details of data set [9]: method as in PMID 21964193. The following applies: naringin 40 and naringenin 80 mg/kg, respectively; cited from earlier work.
Data set [10] has as its system estrogen-induced uterine weight. The following applies: 30 mg/rat co-treated with estradiol (0.5 µg/rat); cited from earlier work.
Data set [11] relates to HFB4 cells. In words: SRB cytotoxicity assay on normal HFB4 cells. The data set is classed as cell-based, human. The following applies: ± SD. As to the method:
as §2

The term IC50 denotes the midpoint of a concentration-inhibition curve. Consider `COc1ccc(-c2cc(=O)c3c(OC)c(OC)c(OC)c(OC)c3o2)cc1OC` [C1, 5,6,7,8,3′,4′-hexamethoxy flavone], for which the IC50 in data set [1], in data set [2] and in data set [3] was greater than 50 µg/mL in each case.

As for `O=c1c(O)c(-c2ccc(O)c(O)c2)oc2cc(O)cc(O)c12` [C2, 5,7,3′,4′-tetrahydroxy flavonol], the IC50 in data set [1] is 2.11 ± 0.71 µg/mL (≈ 6.98 µM). Also, the “decrease in tumor volume compared to positive control” value in data set [4] worked out at 61.71%. In data set [5], the “reversal of estradiol-induced vaginal cornification” value is on record as “not fully reversed”, the “reduction in uterine weight compared to estradiol alone” value amounted to 48%, the “day on which vaginal opening reached 100%” value came to 4 days and the “day on which vaginal opening started (delay up to day)” value (“day … (delay up to day)” below) was found to be 2 days. In addition, in [2], the 50% inhibitory concentration (IC50) was 1.81 ± 0.28 µg/mL (≈ 5.99 µM). Moreover, in data set [6] (EAC tumors, ELISA), the “reduction in aromatase levels as compared to naringenin” value is listed as 26.4% and the “reduction in aromatase levels as compared to naringin” value was 32%. The “aromatase levels in tumors, lower than positive control group” value in [6] (ELISA on tumor homogenates, day 20, quercetin 100, naringenin 50, naringin 100 mg/kg i.p.) is given as 72.35%. The IC50 in data set [3] is greater than 50 µg/mL. In data set [7] (7 days, no estradiol), the average uterine weight is 13.0 ± 3.0 mg and the “day on which vaginal opening started” value is 6 days. For the same compound, the “effect on the uterine weight upon treatment with steroid” value in data set [8] (10 mg/kg) is on record as “anti-estrogenic effect”. In addition, the “estrogenic effect at higher dose” value in [8] (100 mg/kg) is listed as “potent estrogenic effect”.

Regarding `COc1ccc(-c2cc(=O)c3c(O)cc(O[C@@H]4O[C@H](CO[C@@H]5O[C@@H](C)[C@H](O)[C@@H](O)[C@H]5O)[C@@H](O)[C@H](O)[C@H]4O)cc3o2)cc1O` [C3, 5,3′-dihydroxy-4′-methoxy flavone-7O-α-L-rhamnopyranosyl (1 → 6)β-D-glucopyranoside], the IC50 in [1], in [2] and in [3] was greater than 50 µg/mL in each case.

As for `O=C1CC(c2ccc(O)cc2)Oc2cc(O)cc(O)c21` (centres unmarked) [C4, 5,7,4′-trihydroxy flavanone], the “estrogenic and anti-estrogenic activities” value in data set [9] is “double directional estrogenic and anti-estrogenic activities”. Besides, the IC50 in [1] stood at 1.12 ± 0.09 µg/mL (≈ 4.11 µM). Moreover, the “decrease in tumor volume compared to positive control” value in data set [4] is recorded as 73.26%. The “effect on estrogen-induced uterine weight” value in data set [10] is recorded as “significant decrease in estrogen-induced uterine weight”. Moreover, in [5], the “reversal of estradiol-induced vaginal cornification” value is listed as “not fully reversed”, the “reduction in uterine weight compared to estradiol alone” value stood at 58%, the “day on which vaginal opening reached 100%” value came out at 7 days and the “day … (delay up to day)” value came out at 5 days. For the same compound, in data set [2], the IC50 was found to be 1.93 ± 0.07 µg/mL (≈ 7.09 µM). In [3], the IC50 was greater than 50 µg/mL. The same compound registered an average uterine weight in [7] (7 days, no estradiol) of 16.0 ± 3.7 mg.

On to `COc1ccc([C@@H]2CC(=O)c3c(O)cc(O[C@@H]4O[C@H](CO[C@@H]5O[C@@H](C)[C@H](O)[C@@H](O)[C@H]5O)[C@@H](O)[C@H](O)[C@H]4O)cc3O2)cc1O` [C5, 5,3′-dihydroxy-4′-methoxy flavanone-7O-α-L-rhamnopyranosyl (1 → 6)β-D-glucopyranoside], for which the “IC50 values, cytotoxic effect on MCF7” value in data set [1] (± SD) is reported as “– ((−) no activity in a concentration up to 50 µg/mL)”. Moreover, the “IC50 values, cytotoxic effect on T47D” value in data set [2] is “– ((−) no activity in a concentration up to 50 µg/mL)”. In data set [11], the “IC50 values, cytotoxic effect on HFB4” value is reported as “– ((−) no activity in a concentration up to 50 µg/mL)”.

Consider `COc1ccc(C2CC(=O)c3c(O)cc(O)cc3O2)cc1O` (centres unmarked) [C6, 5,7,3′-trihydroxy-4′-methoxy flavanone], for which the IC50 was 4.96 ± 0.89 µg/mL (≈ 16.4 µM) in data set [1], 3.53 ± 0.19 µg/mL (≈ 11.7 µM) in [2] and greater than 50 µg/mL in [3].

In the case of `C[C@@H]1O[C@@H](OC[C@H]2O[C@@H](Oc3c(-c4ccc(O)c(O)c4)oc4cc(O)cc(O)c4c3=O)[C@H](O)[C@@H](O)[C@@H]2O)[C@H](O)[C@H](O)[C@H]1O` [C7, 5,7,3′,4′-tetrahydroxy flavon-3O-α-L-rhamnopyranosyl (1 → 6)β-D-glucopyranoside], the IC50 in [1], in data set [2] and in [3] was greater than 50 µg/mL each time.

On to `C[C@]12CC[C@@H]3c4ccc(OC(=O)c5ccccc5)cc4CC[C@H]3[C@@H]1CC[C@@H]2O` [estradiol, Estradiol benzoate, reference compound], for which, in data set [5] (7 days treatment), the body weight is recorded as 15.6 ± 1.8 g. In [5] (estradiol alone 12.5 µg/kg s.c.), this compound displayed a uterine weight of 215.0 ± 64.4 mg. Also, in data set [5], the “day on which vaginal opening reached 100%” value was determined as 5 days and the “day … (delay up to day)” value amounted to 2 days.

In the case of `O=c1c(-c2ccc(O)cc2)coc2cc(O)cc(O)c12` [genistein, reference compound], the average uterine weight in data set [7] (7 days, no estradiol) was 20.0 ± 7.5 mg. Besides, the vaginal cornification result in [7] (day 7 swab) is recorded as “mild vaginal cornification”.
